The text below walks through data of patent US10287276B2, “Heteroaryl-1,2,4-triazole and heteroaryl-tetrazole compounds for controlling ectoparasites” (Elanco Tiergesundheit AG, priority 2016, dated 2019).

Each structure is given as a SMILES string.

Assay [1] deals with Ctenocephalides Felis (Cat Flea). The experiment in a line: Activity in vitro against Ctenocephalides felis (cat flea), Assay B. Conditions: Ctenocephalides felis; at 10 ppm in bovine blood; % mortality at 48 hours post infestation; read-out: efficacy (EC50). The procedure:
Activity In Vitro Against Ctenocephalides Felis (Cat Flea)—Assay B
Test compounds are added to organic bovine blood contained in an artificial feeding container. Compounds with known insecticidal activity are included to serve as positive controls. Newly emerged unfed adult fleas from a laboratory colony are aspirated into each vial. The test cages are maintained using the artificial feeding apparatus to allow ingestion of compound. Fleas are evaluated for % mortality at 48 hours post infestation. Fleas showing normal movement and/or jumping ability are considered viable and those showing no movement are scored as dead.

The subject of assay [2] is Lucilla Cuprina (Australian Sheep Blowfly). In words: Activity in vitro against Lucilla cuprina (Australian sheep blowfly), Assay B. As to conditions: Lucilia cuprina; at 10 ppm; larvae, compound in bovine serum, percent mortality at 24 hours; read-out: efficacy (EC50). Further details: species or system L. cuprina. How it is done: Activity In Vitro Against Lucilla Cuprina (Australian Sheep Blowfly)—Assay B
Compound formulated in bovine serum is dispensed into scintillation. A dental cotton roll is added to each vial to absorb the compound solution. L. cuprina larvae are added to each treatment vial. The vials are capped and held for 24 hours in an environmental chamber at appropriate temperature, humidity and light/dark cycles. Evaluations are only made at 24 hours because dead larvae after 24 hours may be cannibalized by the remaining live ones. Vials are examined for percent mortality.

Assay [3] concerns Ctenocephalides Felis (Cat Flea). The experiment in a line: Activity in vitro against Ctenocephalides felis (cat flea), Assay A. Conditions: Ctenocephalides felis; at 100 ppm; adult fleas fed on treated blood for 24 h; dead fleas counted; read-out: efficacy (EC80). The procedure: Activity In Vitro Against Ctenocephalides Felis (Cat Flea)—Assay A
A mixed adult population of fleas is placed in a suitably formatted 96-well plate allowing fleas to access and feed on treated blood via an artificial feeding system. Fleas are fed on treated blood for 24 h, after which the compound effect is recorded. Insecticidal activity is determined on the basis of the number of dead fleas recovered from the feeding system.

The subject of assay [4] is Lucilla Cuprina (Australian sheep blowfly). The experiment in a line: Activity in vitro against Lucilla cuprina (Australian sheep blowfly), Assay A. Conditions: Lucilia cuprina, 96 h; at 32 ppm; eggs on agar-based medium, 4 days at 28° C. and 60% relative humidity; read-out: efficacy (EC80).
Assay [5] deals with Rhipicephalus sanguineus (Dog Tick). The experiment in a line: Activity in vitro against Rhipicephalus sanguineus (dog tick), Assay A, contact test. As to conditions: Rhipicephalus sanguineus, 168 h, at 100 ppm, adult ticks, 28° C. and 80% relative humidity for 7 days, read-out: efficacy (EC80).
Assay [6] deals with Engorged Female Rhipicephalus microplus (Cattle Tick). In words: Activity in vitro against engorged female Rhipicephalus microplus (cattle tick), contact test. As to conditions: 672 h, organophosphorous-resistant Ultimo strain, evaluation 28 days later on mortality, oviposition and hatched larvae, read-out: efficacy (EC80). In short, it runs like this:
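Contact test: wells pre-coated with compound serial dilutions, 10 engorged females of organophosphate-resistant Ultimo strain per well, triplicates. Incubated 28 °C, 80% RH; mortality, oviposition and larval hatch assessed after 28 days.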

Assay [7] relates to Rhipicephalus sanguineus Nymphs. In words: Activity in vivo against Rhipicephalus sanguineus nymphs on Mongolian gerbils. Conditions: topical, 0 h, pour on application day 0, tick number reduction vs placebo, Abbott's formula, read-out: efficacy (EC90). How it is done:
On day 0, gerbils are treated with the test compound at a given dose by pour on application. On day +1 (+2), the animals are infested with nymphs of R. sanguineus. Ticks are left on the animals until full repletion. Seven days after infestation nymphs dropped off fully engorged are collected and counted. They are kept until molting to also evaluate growth regulating activity of the test compound. Efficacy in killing (and growth regulating) is expressed as a tick number (and molted tick number) reduction in comparison with a placebo treated group, using the Abbott's formula:
n=number of live ticks. T=treated group. Co=control/placebo group.

For another assay, the system named is Lice (Polyplax serrata). In words: Activity in vivo against lice (Polyplax serrata) in mice (topical). As to conditions: pour-on application, live lice on day +4 and +14, Henderson & Tilton formula, read-out: efficacy (EC90). The essentials:
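Naturally infested mice get formulated compound once by pour-on on day 0. Live lice are counted under a binocular on days +4 and +14. Efficacy is calculated by Henderson & Tilton from pre- vs post-treatment counts on the same mouse, corrected against placebo (empty formulation) mice.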

As for `CC(c1ncnn1-c1ncccn1)N(C)C(=O)c1cc(C(N)=S)cc(C(F)(F)F)c1` (stereo not drawn) [Example 72, 3-Carbamothioyl-N-methyl-N-[1-(2-pyrimidin-2-yl-1,2,4-triazol-3-yl)ethyl]-5-(trifluoromethyl)benzamide], the pest or weed control at 10 ppm in assay [1] and in assay [2] was over 50% each time.

For the molecule `CC(NC(=O)c1cc(C#N)cc(C(F)(F)F)c1)c1ncnn1-c1ncccn1` (stereo not drawn) [Example 57, 3-Cyano-N-[1-(2-pyrimidin-2-yl-1,2,4-triazol-3-yl)ethyl]-5-(trifluoromethyl)benzamide], the pest or weed control at 10 ppm in assay [1] and in assay [2] was over 50% each time.

In the case of `C[C@H](NC(=O)c1cc(C(F)(F)F)cc(C(F)(F)F)c1)c1ncnn1-c1ncccn1` [Example 66, N-[(1S)-1-(2-Pyrimidin-2-yl-1,2,4-triazol-3-yl)ethyl]-3,5-bis(trifluoromethyl)benzamide], the pest or weed control at 10 ppm in assay [1] and in assay [2] was over 50% each time.

Regarding `CC(c1ncnn1-c1ncccn1)N(CC1CC1)C(=O)c1cc(C(F)(F)F)nc(C(F)(F)F)c1` (stereo not drawn) [Example 51, N-(Cyclopropylmethyl)-N-[1-(2-pyrimidin-2-yl-1,2,4-triazol-3-yl)ethyl]-2,6-bis(trifluoromethyl)pyridine-4-carboxamide], the pest or weed control at 10 ppm in assay [1] and in assay [2] was over 50% in each case.

With `C[C@@H](c1ncnn1-c1ncc(F)cn1)N(CC1CC1)C(=O)c1cc(C(F)(F)F)cc(C(F)(F)F)c1` [Example 64, N-(Cyclopropylmethyl)-N-[(1S)-1-[2-(5-fluoropyrimidin-2-yl)-1,2,4-triazol-3-yl]ethyl]-3,5-bis(trifluoromethyl)benzamide], the pest or weed control at 10 ppm in assay [1] and in assay [2] was over 50% each time.

`CCN(C(=O)c1cc(C(F)(F)F)cc(C(F)(F)F)c1)C(C)c1ncnn1-c1ncccn1` (stereo not drawn) [Example 53, N-Ethyl-N-[1-(2-pyrimidin-2-yl-1,2,4-triazol-3-yl)ethyl]-3,5-bis(trifluoromethyl)benzamide]: the pest or weed control at 10 ppm in assay [1] and in assay [2] was over 50% each time.

For the molecule `COc1cnc(-n2ncnc2C(C)N(CC2CC2)C(=O)c2cc(C(F)(F)F)cc(C(F)(F)F)c2)nc1` (stereo not drawn) [Example 39, N-(Cyclopropylmethyl)-N-[1-[2-(5-methoxypyrimidin-2-yl)-1,2,4-triazol-3-yl]ethyl]-3,5-bis(trifluoromethyl)benzamide], the pest or weed control at 100 ppm in assay [3] and in assay [5] was over 80% throughout. Also, the pest or weed control at 32 ppm in assay [4] was over 80%. Moreover, the pest or weed control at 200 ppm in assay [6] was over 80%. Besides, the inhibition in vivo at 32 mg/kg (in assay [7]; with Lice (Polyplax serrata)) was over 90% throughout.

On to `CC(c1ncnn1-c1ccccn1)N(CC1CC1)C(=O)c1cc(C(F)(F)F)cc(C(F)(F)F)c1` (stereo not drawn) [Example 1, N-(Cyclopropylmethyl)-N-[1-[2-(2-pyridyl)-1,24-triazol-3-yl]ethyl]-3,5-bis(trifluoromethyl)benzamide], for which the pest or weed control at 100 ppm in assay [3] and in assay [5] was over 80% in each case. In assay [4], the pest or weed control at 32 ppm was over 80%. For the same molecule, the pest or weed control at 200 ppm in assay [6] is over 80%. Besides, the inhibition in vivo at 32 mg/kg (in assay [7]; in the assay with Lice (Polyplax serrata)) was over 90% in each case.

On to `CC(c1ncnn1-c1ccccn1)N(CCF)C(=O)c1cc(C(F)(F)F)cc(C(F)(F)F)c1` (stereo not drawn) [Example 11, N-(2-Fluoroethyl)-N-[1-[2-(2-pyridyl)-1,2,4-triazol-3-yl]ethyl]-3,5-bis(trifluoromethyl)benzamide], for which the pest or weed control at 100 ppm in assay [3] and in assay [5] was over 80% in each case. In addition, in assay [4], the pest or weed control at 32 ppm is over 80%. In assay [6], the pest or weed control at 200 ppm was over 80%. Besides, the inhibition in vivo at 32 mg/kg (in assay [7]; in the assay on Lice (Polyplax serrata)) was over 90% in each case.
